In US20230219962A1, “PYRAZOLO[4,3-d]PYRIMIDINE DERIVATIVES AND METHODS OF USE THEREOF FOR THE TREATMENT OF CELLULAR PROLIFERATIVE DISORDERS” (Merck Sharp & Dohme LLC, priority 2020, published 2023) one finds EC50 data, which are given here for 38 compounds.

Experiment [1] deals with T1, hTLR7 (Homo sapiens, UniProt Q9NYK1).
T1 construct: host or cells: HEK-Blue hTLR7 cells (HEK293-derived, own knowledge)
T1 sequence (Q9NYK1 27-1049): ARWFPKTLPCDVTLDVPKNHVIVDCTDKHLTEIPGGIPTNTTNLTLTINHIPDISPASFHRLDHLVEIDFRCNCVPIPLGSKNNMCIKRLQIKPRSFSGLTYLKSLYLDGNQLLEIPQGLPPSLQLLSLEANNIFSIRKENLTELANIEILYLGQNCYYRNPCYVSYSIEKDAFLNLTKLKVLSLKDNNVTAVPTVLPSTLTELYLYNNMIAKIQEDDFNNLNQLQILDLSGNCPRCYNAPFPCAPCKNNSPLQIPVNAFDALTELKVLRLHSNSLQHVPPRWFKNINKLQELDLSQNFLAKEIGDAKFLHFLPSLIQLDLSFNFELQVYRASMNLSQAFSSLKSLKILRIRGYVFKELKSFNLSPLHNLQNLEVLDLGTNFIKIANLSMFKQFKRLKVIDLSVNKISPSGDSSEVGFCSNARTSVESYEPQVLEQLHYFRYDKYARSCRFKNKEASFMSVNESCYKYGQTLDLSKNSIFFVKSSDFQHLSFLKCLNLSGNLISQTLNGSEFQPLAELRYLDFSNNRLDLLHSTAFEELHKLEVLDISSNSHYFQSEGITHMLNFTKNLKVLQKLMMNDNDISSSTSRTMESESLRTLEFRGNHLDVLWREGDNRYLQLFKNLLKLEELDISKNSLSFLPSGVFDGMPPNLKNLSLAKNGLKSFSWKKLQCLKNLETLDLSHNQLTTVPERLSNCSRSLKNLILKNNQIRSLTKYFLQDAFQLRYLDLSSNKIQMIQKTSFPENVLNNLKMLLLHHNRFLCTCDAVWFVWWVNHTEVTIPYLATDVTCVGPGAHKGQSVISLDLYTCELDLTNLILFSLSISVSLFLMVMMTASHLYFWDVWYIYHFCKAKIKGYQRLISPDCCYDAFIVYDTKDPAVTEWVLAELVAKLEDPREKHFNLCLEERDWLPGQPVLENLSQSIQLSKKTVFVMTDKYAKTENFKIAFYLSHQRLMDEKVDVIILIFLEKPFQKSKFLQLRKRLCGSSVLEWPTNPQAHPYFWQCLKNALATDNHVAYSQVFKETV
As to the kind of experiment: Human TLR7 Reporter Assay. Format: cell-based. The note with it: HEK-Blue hTLR7 cells, 16 hours, normalized to CL097 (6 μM) and DMSO. In short, it runs like this: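 HEK-Blue hTLR7 reporter cells (20,000/well) incubated 16 h at 37 °C with 10-point 3-fold compound dilutions; SEAP read by absorbance at 620 nm. Effects normalized between CL097 (6 μM) and DMSO controls; EC50 from 4-parameter fit.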
In general terms: Reporter assays use an easily measured gene product as a stand-in for the process of interest.

The target in experiment [2] is T2, hTLR8 (Homo sapiens, UniProt Q9NR97).
T2 construct: host or cells: HEK-Blue hTLR8 cells (HEK293-derived, own knowledge)
T2 sequence (Q9NR97 27-1041): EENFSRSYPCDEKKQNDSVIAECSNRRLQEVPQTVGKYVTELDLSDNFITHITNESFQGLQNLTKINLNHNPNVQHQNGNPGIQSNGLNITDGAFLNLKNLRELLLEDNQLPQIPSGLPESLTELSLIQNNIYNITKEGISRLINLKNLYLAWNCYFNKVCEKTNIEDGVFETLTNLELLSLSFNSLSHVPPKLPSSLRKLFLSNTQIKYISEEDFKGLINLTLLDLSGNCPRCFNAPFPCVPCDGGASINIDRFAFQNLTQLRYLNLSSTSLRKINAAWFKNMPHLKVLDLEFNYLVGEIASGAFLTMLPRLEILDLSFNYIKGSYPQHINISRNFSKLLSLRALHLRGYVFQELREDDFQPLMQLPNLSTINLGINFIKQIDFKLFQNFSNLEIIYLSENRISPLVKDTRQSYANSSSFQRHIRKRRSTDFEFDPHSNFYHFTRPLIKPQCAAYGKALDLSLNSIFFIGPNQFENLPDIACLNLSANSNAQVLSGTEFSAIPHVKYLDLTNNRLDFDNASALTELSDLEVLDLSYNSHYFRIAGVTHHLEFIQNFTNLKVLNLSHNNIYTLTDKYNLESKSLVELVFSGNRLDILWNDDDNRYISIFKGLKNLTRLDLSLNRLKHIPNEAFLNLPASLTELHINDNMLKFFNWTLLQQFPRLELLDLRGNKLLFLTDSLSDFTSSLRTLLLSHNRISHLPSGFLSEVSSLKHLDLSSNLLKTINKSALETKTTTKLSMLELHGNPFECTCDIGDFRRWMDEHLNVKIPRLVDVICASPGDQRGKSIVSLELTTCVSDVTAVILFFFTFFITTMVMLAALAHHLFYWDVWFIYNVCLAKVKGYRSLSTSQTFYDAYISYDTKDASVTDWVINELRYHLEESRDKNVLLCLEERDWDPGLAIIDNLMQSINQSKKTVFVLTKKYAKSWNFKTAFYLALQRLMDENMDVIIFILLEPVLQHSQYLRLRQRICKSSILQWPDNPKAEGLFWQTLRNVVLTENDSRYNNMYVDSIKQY
As to the kind of experiment: Human TLR8 Reporter Assay. Format: cell-based. To be noted: HEK-Blue hTLR8 cells, 16 hours, normalized to tl8-506 (1 μM) and DMSO. In short, it runs like this: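 HEK-Blue hTLR8 cells (20,000/well) incubated 16 h at 37 °C with 10-point 3-fold compound dilutions in HEK-Blue Detection medium; reporter read as absorbance at 620 nm. Effects normalized between DMSO and tl8-506 (1 μM); EC50 from 4-parameter fit.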

The structures appear in SMILES notation.

What is called EC50 is the concentration at which the effect is half-maximal. A high value points to weaker potency. With `CCCCNc1nc(N)nc2cn(Cc3ccc(N4CCN(C(=O)[C@H]5CC[C@H](CN)CC5)CC4)cc3OC)nc12` [Compound 115], the EC50 in experiment [1] came out at 329 nM; in experiment [2], 5590 nM.

Take `CCCCNc1nc(N)nc2cn(Cc3ccc(N4CC5(CNC5)C4)cc3OC)nc12` [Compound 116]: the EC50 in experiment [1] was 988 nM; in experiment [2], 4200 nM.

For `CCCCNc1nc(N)nc2cn(Cc3ccon3)nc12` [Compound 117], the EC50 in experiment [1] amounted to 751 nM; in experiment [2], 2200 nM.

`CCCCNc1nc(N)nc2cn(Cc3ccc(CN4CC(CN)C4)cc3OC)nc12` [Compound 118]: the values for the EC50 in experiment [1] and in experiment [2] were 249 nM and 144 nM, respectively.

`CCCCNc1nc(N)nc2cn(Cc3ccc(CN4CCN(C(=O)CCN5C(=O)C=CC5=O)CC4)cc3)nc12` [Compound 119]: the concentration for a half-maximal effect (EC50) stood at 6650 nM in experiment [1] and 22500 nM in experiment [2].

As for `C=CC(=O)NC[C@H]1CC[C@H](C(=O)N2CCN(c3ccc(Cn4cc5nc(N)nc(NCCCC)c5n4)c(OC)c3)CC2)CC1` [Compound 120], the figures for the EC50 in experiment [1] and in experiment [2] were 112 nM and 2220 nM, respectively.

With `CCCCNc1nc(N)nc2cn(Cc3ncoc3C)nc12` [Compound 121], the values for the EC50 in experiment [1] and in experiment [2] were 490 nM and 2320 nM, respectively.

Turning to `CCCCNc1nc(N)nc2cn(Cc3ncccn3)nc12` [Compound 122], the values for the EC50 in experiment [1] and in experiment [2] were 288 nM and 1400 nM, respectively.

In the case of `CCCCNc1nc(N)nc2cn(Cc3ccc(N4CCNCC4)cn3)nc12` [Compound 123], the results for the EC50 in experiment [1] and in experiment [2] were 743 nM and 880 nM, respectively.

Turning to `CCCC(Nc1nc(N)nc2cn(Cc3c(OC)cccc3OC)nc12)C(F)(F)F` (stereo not shown) [Compound 124], the EC50 in experiment [1] was 266 nM; in experiment [2] it was more than 9980 nM.

As to `CCCCNc1nc(N)nc2cn(Cc3ccc(N4CC5(CN(CCN6C(=O)C=CC6=O)C5)C4)cc3OC)nc12` [Compound 125], the EC50 is 1740 nM in experiment [1] and 18700 nM in experiment [2].

`CCCC(Nc1nc(N)nc2cn(Cc3c(OC)cccc3OC)nc12)C(F)(F)F` (stereo not shown) [Compound 126]: the EC50 in experiment [1] is 707 nM; in experiment [2] it was more than 9980 nM.

Take `CCCCNc1nc(N)nc2cn(Cc3ccc(CN4CC(CN5C(=O)C=CC5=O)C4)cc3OC)nc12` [Compound 127]: the figures for the EC50 in experiment [1] and in experiment [2] were 1240 nM and 3300 nM, respectively.

On to `CCCCNc1nc(N)nc2cn(Cc3ccc(CCO)cc3OC)nc12` [Compound 128], for which the results for the EC50 in experiment [1] and in experiment [2] were 95.2 nM and 633 nM, respectively.

In the case of `CCCCNc1nc(N)nc2cn(Cc3ncc(NCCCN)cc3OC)nc12` [Compound 129], the figures for the EC50 in experiment [1] and in experiment [2] were 293 nM and 1360 nM, respectively.

For `CCC[C@@H](CO)Nc1nc(N)nc2cn(Cc3ccccc3OC)nc12` [Compound 130], the EC50 is 370 nM in experiment [1] and 734 nM in experiment [2].

As for `CCCCNc1nc(N)nc2cn(Cc3ccc(CN4CCNCC4)cc3OC)nc12` [Compound 131], the EC50 came out at 680 nM in experiment [1] and 1250 nM in experiment [2].

On to `CCCCNc1nc(N)nc2cn(Cc3cccc(N4CCNCC4)c3OC)nc12` [Compound 132], for which the EC50 in experiment [1] was 708 nM; in experiment [2] it was 1490 nM.

Consider `CCC[C@@H](CO)Nc1nc(N)nc2cn(Cc3ncccc3OC)nc12` [Compound 133], for which the 50% effective concentration (EC50) was 114 nM in experiment [1] and 161 nM in experiment [2].

As for `CCCCNc1nc(N)nc2cn(Cc3c(OC)cc(NCCN4C(=O)C=CC4=O)cc3OC)nc12` [Compound 134], the EC50 was determined as 1520 nM in experiment [1] and 14400 nM in experiment [2].

`CCCC(Nc1nc(N)nc2cn(Cc3c(OC)cccc3OC)nc12)C(F)F` (stereo not shown) [Compound 135]: the EC50 in experiment [1] was 343 nM; in experiment [2] it was more than 9980 nM.

Take `CCCC(Nc1nc(N)nc2cn(Cc3c(OC)cccc3OC)nc12)C(F)F` (stereo not shown) [Compound 136]: the EC50 is 174 nM in experiment [1] and 1340 nM in experiment [2].

Take `CCCCNc1nc(N)nc2cn(Cc3ccc(CN)cc3OC)nc12` [Compound 137]: the concentration for a half-maximal effect (EC50) in experiment [1] came to 439 nM; in experiment [2], 692 nM.

With `CCCCNc1nc(N)nc2cn(Cc3ccc(C4CCNCC4)nc3OC)nc12` [Compound 138], the EC50 in experiment [1] is 191 nM; in experiment [2], 1780 nM.

Take `CCCCNc1nc(N)nc2cn(Cc3ccc(CCN)cc3OC)nc12` [Compound 139]: the half-maximal effective concentration (EC50) in experiment [1] was determined as 717 nM; in experiment [2], 942 nM.

For `CCCCNc1nc(N)nc2cn(Cc3nocc3C)nc12` [Compound 140], the EC50 in experiment [1] came to 252 nM; in experiment [2] it was 1720 nM.

With `CCCCNc1nc(N)nc2cn(Cc3c(OC)cc(CN(C)CCCN)cc3OC)nc12` [Compound 141], the EC50 in experiment [1] was 409 nM; in experiment [2], 413 nM.

On to `CCCCNc1nc(N)nc2cn(Cc3ccc(CN)cn3)nc12` [Compound 142], for which the concentration giving a half-maximal response (EC50) in experiment [1] came out at 354 nM; in experiment [2], 3220 nM.

Take `CCCCNc1nc(N)nc2cn(Cc3cc(OC)c(CN(C)CCCN4C(=O)C=CC4=O)cc3OC)nc12` [Compound 143]: the EC50 in experiment [1] is 360 nM; in experiment [2] it was more than 3330 nM.

With `CCCCNc1nc(N)nc2cn(Cc3ccc(NCCCN)cn3)nc12` [Compound 144], the EC50 in experiment [1] was found to be 170 nM; in experiment [2] it was 3810 nM.

Regarding `CCCCNc1nc(N)nc2cn(Cc3ccc(CN4CC(CNC)C4)cc3OC)nc12` [Compound 145], the EC50 in experiment [1] was found to be 2270 nM; in experiment [2], 6320 nM.

For `CCCCNc1nc(N)nc2cn(Cc3cc(CN)ccc3OC)nc12` [Compound 146], the concentration giving a half-maximal response (EC50) in experiment [1] was found to be 628 nM; in experiment [2], 637 nM.

Regarding `CCCCNc1nc(N)nc2cn(Cc3ccc(CCNC)cc3OC)nc12` [Compound 147], the values for the half-maximal effective concentration (EC50) in experiment [1] and in experiment [2] were 180 nM and 265 nM, respectively.

As to `CCCCNc1nc(N)nc2cn(Cc3cc(CNC)ccc3OC)nc12` [Compound 148], the EC50 stood at 370 nM in experiment [1] and 590 nM in experiment [2].

As for `CCC[C@@H](CO)Nc1nc(N)nc2cn(Cc3ccc(CN4CC(CN)C4)cc3OC)nc12` [Compound 149], the EC50 is 5180 nM in experiment [1] and 1180 nM in experiment [2].

`CCC[C@@H](CO)Nc1nc(N)nc2cn(Cc3ccc(N4CCNCC4)cc3OC)nc12` [Compound 150]: the EC50 in experiment [1] worked out at 1620 nM; in experiment [2], 1640 nM.

On to `CCCCNc1nc(N)nc2cn(Cc3cc(CN4CC(CN)C4)ccc3OC)nc12` [Compound 151], for which the EC50 in experiment [1] turned out to be 2260 nM; in experiment [2] it was 869 nM.

As to `CCC[C@@H](CO)Nc1nc(N)nc2cn(Cc3c(OC)cc(CN)cc3OC)nc12` [Compound 152], the concentration for a half-maximal effect (EC50) is 185 nM in experiment [1] and 122 nM in experiment [2].
